Measured values from paper PMC5218480 (PLoS ONE, 2017).

Test system: MV-4-11 cells
Assay: Gene expression microarray analysis (Affymetrix PrimeView) and GSEA
Type: cell-based, human
Set-up: RFU PODN (11730768_x_at) / Fold change /veh PODN (11730768_x_at) / RFU LINC00158 (11744669_a_at) / Fold change /veh LINC00158 (11744669_a_at) / RFU DUSP10 (11751237_a_at) / Fold change /veh DUSP10 (11751237_a_at) / RFU ID3 (11757404_x_at) / Fold change /veh ID3 (11757404_x_at) / RFU PLEKHG5 (11737974_s_at) / Fold change /veh PLEKHG5 (11737974_s_at) / RFU LRRC4B (11730491_at) / Fold change /veh LRRC4B (11730491_at) / RFU GIMAP4 (11747438_a_at) / Fold change /veh GIMAP4 (11747438_a_at) / RFU KRT8 (11758183_x_at) / Fold change /veh KRT8 (11758183_x_at) / RFU CNN1 (11734310_a_at) / Fold change /veh CNN1 (11734310_a_at) / RFU VPS37D (11726825_at) / Fold change /veh VPS37D (11726825_at) / RFU C10orf10 (11716522_x_at) / Fold change /veh C10orf10 (11716522_x_at) / RFU KIR2DL2 /// KIR2DL4 /// KIR2DL5A /// KIR2DL5B /// KIR2DS1 /// KIR2DS2 /// KIR2DS3 /// KIR2DS4 /// KIR3DL3 /// KIR3DL3 /// KIR3DS1 (11738374_at) / Fold change /veh KIR2DL2 /// KIR2DL4 /// KIR2DL5A /// KIR2DL5B /// KIR2DS1 /// KIR2DS2 /// KIR2DS3 /// KIR2DS4 /// KIR3DL3 /// KIR3DL3 /// KIR3DS1 (11738374_at) / RFU C1QL1 (11718748_at) / Fold change /veh C1QL1 (11718748_at) / RFU TMPRSS4 (11747572_a_at) / Fold change /veh TMPRSS4 (11747572_a_at) / RFU HAMP (11756126_x_at) / Fold change /veh HAMP (11756126_x_at) / RFU RNFT2 (11725882_a_at) / Fold change /veh RNFT2 (11725882_a_at) / RFU NR4A2 (11747474_a_at) / Fold change /veh NR4A2 (11747474_a_at) / RFU ABCC12 (11746883_a_at) / Fold change /veh ABCC12 (11746883_a_at) / RFU TMEM136 (11760407_x_at) / Fold change /veh TMEM136 (11760407_x_at) / RFU CLDN22 /// WWC2 (11732394_at) / Fold change /veh CLDN22 /// WWC2 (11732394_at) / RFU HLA-DPB1 (11760878_x_at) / Fold change /veh HLA-DPB1 (11760878_x_at) / RFU SPINT1 (11716480_a_at) / Fold change /veh SPINT1 (11716480_a_at) / RFU GAP43 (11754022_s_at) / Fold change /veh GAP43 (11754022_s_at) / RFU A4GNT (11735810_at) / Fold change /veh A4GNT (11735810_at) / RFU PRB3 (11715151_x_at) / Fold change /veh PRB3 (11715151_x_at) / RFU TUBB4B (11761932_at) / Fold change /veh TUBB4B (11761932_at) / RFU CAPN14 (11732068_a_at) / Fold change /veh CAPN14 (11732068_a_at) / RFU TMCC2 (11721928_a_at) / Fold change /veh TMCC2 (11721928_a_at) / RFU IRGQ (11745062_a_at) / Fold change /veh IRGQ (11745062_a_at) / RFU FAM174B (11720279_a_at) / Fold change /veh FAM174B (11720279_a_at) / RFU TMPRSS4 (11748680_a_at) / Fold change /veh TMPRSS4 (11748680_a_at) / RFU FAM212B (11763350_a_at) / Fold change /veh FAM212B (11763350_a_at) / RFU PLEKHG5 (11743358_a_at) / Fold change /veh PLEKHG5 (11743358_a_at) / RFU ZSCAN30 (11745921_a_at) / Fold change /veh ZSCAN30 (11745921_a_at) / RFU CMKLR1 (11741424_a_at) / Fold change /veh CMKLR1 (11741424_a_at) / RFU LOC101060620 /// MAPK8IP1 (11723275_at) / Fold change /veh LOC101060620 /// MAPK8IP1 (11723275_at) / RFU SPTSSB (11747773_x_at) / Fold change /veh SPTSSB (11747773_x_at) / RFU PRSS12 (11739890_at) / Fold change /veh PRSS12 (11739890_at) / RFU BIN1 (11741810_x_at) / Fold change /veh BIN1 (11741810_x_at) / RFU WNT11 (11732464_a_at) / Fold change /veh WNT11 (11732464_a_at) / RFU C10orf10 (11716521_a_at) / Fold change /veh C10orf10 (11716521_a_at) / RFU C5orf56 (11738089_at) / Fold change /veh C5orf56 (11738089_at) / RFU CYB561 (11721691_x_at) / Fold change /veh CYB561 (11721691_x_at) / RFU ANKRD19P (11752326_a_at) / Fold change /veh ANKRD19P (11752326_a_at) / RFU OR2T12 /// OR2T33 /// OR2T8 (11738714_s_at) / Fold change /veh OR2T12 /// OR2T33 /// OR2T8 (11738714_s_at) / RFU VCAN (11748164_a_at) / Fold change /veh VCAN (11748164_a_at) / RFU JSRP1 (11732532_at) / Fold change /veh JSRP1 (11732532_at) / RFU KRTAP10-11 (11738290_x_at) / Fold change /veh KRTAP10-11 (11738290_x_at) / RFU MYO3A (11730013_a_at) / Fold change /veh MYO3A (11730013_a_at) / RFU EBF3 (11725865_a_at) / Fold change /veh EBF3 (11725865_a_at) / RFU CAMK2N1 (11719241_x_at) / Fold change /veh CAMK2N1 (11719241_x_at) / RFU C5orf56 (11738088_a_at) / Fold change /veh C5orf56 (11738088_a_at) / RFU OLFML3 (11715873_a_at) / Fold change /veh OLFML3 (11715873_a_at) / RFU LOC100653217 /// NTM (11731650_a_at) / Fold change /veh LOC100653217 /// NTM (11731650_a_at) / RFU MAPK11 (11762145_a_at) / Fold change /veh MAPK11 (11762145_a_at) / RFU FIZ1 (11724087_x_at) / Fold change /veh FIZ1 (11724087_x_at) / RFU OASL (11726364_x_at) / Fold change /veh OASL (11726364_x_at) / RFU SOX15 (11748057_x_at) / Fold change /veh SOX15 (11748057_x_at) / RFU CD79A (11719716_a_at) / Fold change /veh CD79A (11719716_a_at) / RFU HIST1H1D (11736915_at) / Fold change /veh HIST1H1D (11736915_at) / RFU CASKIN2 (11723855_a_at) / Fold change /veh CASKIN2 (11723855_a_at) / RFU LOC730098 (11760151_x_at) / Fold change /veh LOC730098 (11760151_x_at) / RFU OR4N2 (11742367_at) / Fold change /veh OR4N2 (11742367_at) / RFU PRRT2 (11749266_a_at) / Fold change /veh PRRT2 (11749266_a_at) / RFU SNX32 (11753110_a_at) / Fold change /veh SNX32 (11753110_a_at) / RFU CDHR5 (11726645_a_at) / Fold change /veh CDHR5 (11726645_a_at) / RFU RCAN1 (11760418_a_at) / Fold change /veh RCAN1 (11760418_a_at) / RFU FAM167A (11723789_a_at) / Fold change /veh FAM167A (11723789_a_at) / RFU FAM26E (11764081_at) / Fold change /veh FAM26E (11764081_at) / RFU ISYNA1 (11749810_s_at) / Fold change /veh ISYNA1 (11749810_s_at) / RFU ACY1 (11761880_at) / Fold change /veh ACY1 (11761880_at) / RFU 11764098_at / Fold change /veh 11764098_at / RFU SAMD14 (11745864_x_at) / Fold change /veh SAMD14 (11745864_x_at) / RFU NPB (11741838_a_at) / Fold change /veh NPB (11741838_a_at) / RFU TMPRSS6 (11731388_a_at) / Fold change /veh TMPRSS6 (11731388_a_at) / RFU KRTAP10-2 (11738614_at) / Fold change /veh KRTAP10-2 (11738614_at) / RFU ARHGAP8 /// PRR5-ARHGAP8 (11727945_x_at) / Fold change /veh ARHGAP8 /// PRR5-ARHGAP8 (11727945_x_at) / RFU KRTAP5-7 /// NADSYN1 (11734609_at) / Fold change /veh KRTAP5-7 /// NADSYN1 (11734609_at) / RFU RASL12 (11751679_a_at) / Fold change /veh RASL12 (11751679_a_at) / RFU CDKN2B (11736163_a_at) / Fold change /veh CDKN2B (11736163_a_at) / RFU PRF1 (11729649_at) / Fold change /veh PRF1 (11729649_at) / RFU, ZNF638 /// ZNF638-IT1 / Fold change vs veh, ZNF638 /// ZNF638-IT1 / RFU, PANK3 / Fold change vs veh, PANK3 / RFU, SH3YL1 / Fold change vs veh, SH3YL1 / RFU, ZEB2 / Fold change vs veh, ZEB2 / RFU, NRIP1 / Fold change vs veh, NRIP1 / RFU, PTTG1IP / Fold change vs veh, PTTG1IP / RFU, CAPN2 / Fold change vs veh, CAPN2 / RFU, MED14 / Fold change vs veh, MED14 / RFU, SNORA58 / Fold change vs veh, SNORA58 / RFU, C1orf63 / Fold change vs veh, C1orf63 / RFU, LRRFIP1 / Fold change vs veh, LRRFIP1 / RFU, NDUFAF7 / Fold change vs veh, NDUFAF7 / RFU, SLC12A2 / Fold change vs veh, SLC12A2 / RFU, IBTK / Fold change vs veh, IBTK / RFU, ESF1 / Fold change vs veh, ESF1 / Fold change vs veh, TMEM50B / RFU, TAOK1 / Fold change vs veh, TAOK1 / RFU, ACBD3 / Fold change vs veh, ACBD3 / RFU, TMA16 / Fold change vs veh, TMA16 / RFU, RWDD3 / Fold change vs veh, RWDD3 / RFU, BCAT1 / Fold change vs veh, BCAT1 / RFU, EDEM3 / Fold change vs veh, EDEM3 / RFU, TMEM33 / Fold change vs veh, TMEM33 / RFU, WDR75 / Fold change vs veh, WDR75 / RFU, AHCTF1 / Fold change vs veh, AHCTF1 / RFU, TFRC / Fold change vs veh, TFRC / RFU, ZDHHC17 / Fold change vs veh, ZDHHC17 / RFU, NOM1 / Fold change vs veh, NOM1 / RFU, ARL8B / Fold change vs veh, ARL8B / RFU, ZBTB11 / Fold change vs veh, ZBTB11 / RFU, TAMM41 / Fold change vs veh, TAMM41 / RFU, KIAA1704 /// LOC100996395 / Fold change vs veh, KIAA1704 /// LOC100996395 / RFU, ING1 / Fold change vs veh, ING1 / RFU, TRMT61B / Fold change vs veh, TRMT61B / RFU, FUBP3 / Fold change vs veh, FUBP3 / RFU, TP53 / Fold change vs veh, TP53 / RFU, TNKS2 / Fold change vs veh, TNKS2 / RFU, ZFP14 / Fold change vs veh, ZFP14 / RFU, ACTR2 / Fold change vs veh, ACTR2 / RFU, PPP3R1 / Fold change vs veh, PPP3R1 / RFU, PIK3R1 / Fold change vs veh, PIK3R1 / RFU, HNRNPA1 / Fold change vs veh, HNRNPA1 / RFU, RNF170 / Fold change vs veh, RNF170 / RFU, ZNF28 / Fold change vs veh, ZNF28 / RFU, RNGTT / Fold change vs veh, RNGTT / RFU, OGT / Fold change vs veh, OGT / RFU, BRD1 / Fold change vs veh, BRD1 / RFU, MARS / Fold change vs veh, MARS / RFU, ZNF655 / Fold change vs veh, ZNF655 / RFU, FAHD1 / Fold change vs veh, FAHD1 / RFU, BDP1 / Fold change vs veh, BDP1 / RFU, LRRCC1 / Fold change vs veh, LRRCC1 / RFU, ARID1A / Fold change vs veh, ARID1A / RFU, ZNF146 / Fold change vs veh, ZNF146 / RFU, ZNF330 / Fold change vs veh, ZNF330 / RFU, GPN3 / Fold change vs veh, GPN3 / RFU, C9orf123 / Fold change vs veh, C9orf123 / RFU, N4BP2L2 / Fold change vs veh, N4BP2L2 / RFU, ARFIP1 / Fold change vs veh, ARFIP1 / RFU, FAM179B / Fold change vs veh, FAM179B / RFU, BCL10 / Fold change vs veh, BCL10 / RFU, UHRF1BP1L / Fold change vs veh, UHRF1BP1L / RFU, BET1 / Fold change vs veh, BET1 / RFU, CNOT2 / Fold change vs veh, CNOT2 / RFU, ZNF268 / Fold change vs veh, ZNF268 / Fold change vs veh, ZNF507 / RFU, DGCR2 / Fold change vs veh, DGCR2 / RFU, WDSUB1 / Fold change vs veh, WDSUB1 / Fold change vs veh, HSP90B1 /// MIR3652 / RFU, ADSS / Fold change vs veh, ADSS / RFU, GK / Fold change vs veh, GK / RFU, ZNF148 / Fold change vs veh, ZNF148 / RFU, TAF9 / Fold change vs veh, TAF9 / RFU, SLC1A5 / Fold change vs veh, SLC1A5 / RFU, SLMO2 / Fold change vs veh, SLMO2 / RFU, ABCC4 / Fold change vs veh, ABCC4 / RFU, LOC101060439 /// RAP1B / Fold change vs veh, LOC101060439 /// RAP1B / RFU, RFX7 / Fold change vs veh, RFX7 / RFU, GTPBP10 / Fold change vs veh, GTPBP10 / RFU, CNEP1R1 / Fold change vs veh, CNEP1R1 / RFU, BIVM-ERCC5 /// ERCC5 / Fold change vs veh, BIVM-ERCC5 /// ERCC5 / RFU, ILF3 / Fold change vs veh, ILF3 / RFU 11762660_at / Fold change /veh 11762660_at / RFU VCAN (11757783_s_at) / Fold change /veh VCAN (11757783_s_at) / RFU DDX43 (11728927_at) / Fold change /veh DDX43 (11728927_at) / RFU KRT8 (11758188_x_at) / Fold change /veh KRT8 (11758188_x_at) / RFU NKD1 (11759106_at) / Fold change /veh NKD1 (11759106_at) / RFU SRD5A1 (11742802_a_at) / Fold change /veh SRD5A1 (11742802_a_at) / RFU TPSAB1 /// TPSB2 (11721975_s_at) / Fold change /veh TPSAB1 /// TPSB2 (11721975_s_at) / RFU GSTM3 (11746129_a_at) / Fold change /veh GSTM3 (11746129_a_at) / RFU IL23R (11737362_x_at) / Fold change /veh IL23R (11737362_x_at) / RFU TMEM51 (11727254_a_at) / Fold change /veh TMEM51 (11727254_a_at) / RFU PIWIL2 (11732686_x_at) / Fold change /veh PIWIL2 (11732686_x_at) / RFU ORM1 (11744905_x_at) / Fold change /veh ORM1 (11744905_x_at) / RFU CCDC152 (11743942_at) / Fold change /veh CCDC152 (11743942_at) / RFU ECM1 (11717891_a_at) / Fold change /veh ECM1 (11717891_a_at) / RFU IL23R (11748794_a_at) / Fold change /veh IL23R (11748794_a_at) / RFU TNFAIP8L3 (11732012_x_at) / Fold change /veh TNFAIP8L3 (11732012_x_at) / RFU MBOAT4 (11741988_at) / Fold change /veh MBOAT4 (11741988_at) / RFU 11764193_at / Fold change /veh 11764193_at / RFU TMEM53 (11763286_at) / Fold change /veh TMEM53 (11763286_at) / RFU MAGEB2 (11727129_at) / Fold change /veh MAGEB2 (11727129_at) / RFU TMEM200A (11744735_a_at) / Fold change /veh TMEM200A (11744735_a_at) / RFU CCDC152 (11751479_a_at) / Fold change /veh CCDC152 (11751479_a_at) / RFU FAM211A (11726209_a_at) / Fold change /veh FAM211A (11726209_a_at) / RFU RGS16 (11746705_a_at) / Fold change /veh RGS16 (11746705_a_at) / RFU VCAN (11755009_s_at) / Fold change /veh VCAN (11755009_s_at) / RFU RHOB (11743442_s_at) / Fold change /veh RHOB (11743442_s_at) / RFU RGS16 (11720943_a_at) / Fold change /veh RGS16 (11720943_a_at) / RFU RGS16 (11720944_at) / Fold change /veh RGS16 (11720944_at) / RFU, VPS4B / Fold change vs veh, VPS4B / RFU, CREB1 / Fold change vs veh, CREB1 / RFU, DNAJC13 / Fold change vs veh, DNAJC13 / RFU, GNAQ / Fold change vs veh, GNAQ / RFU, CDK5R1 / Fold change vs veh, CDK5R1 / RFU, ZRANB3 / Fold change vs veh, ZRANB3 / RFU, CUL4A / Fold change vs veh, CUL4A / RFU, CCNY / Fold change vs veh, CCNY / RFU, UFL1 / Fold change vs veh, UFL1 / RFU, COG3 / Fold change vs veh, COG3 / RFU, DIAPH2 / Fold change vs veh, DIAPH2 / RFU, SKA2 / Fold change vs veh, SKA2 / RFU, AFF3 / Fold change vs veh, AFF3 / RFU, LMF1 / Fold change vs veh, LMF1 / RFU, IPO11 / Fold change vs veh, IPO11 / RFU, DFFB / Fold change vs veh, DFFB / RFU, FOXP1 / Fold change vs veh, FOXP1 / RFU, CARD8 / Fold change vs veh, CARD8 / RFU, STRN3 / Fold change vs veh, STRN3 / RFU, ADK / Fold change vs veh, ADK / RFU, RASSF2 / Fold change vs veh, RASSF2 / RFU, WIPF1 / Fold change vs veh, WIPF1 / RFU, LARP1B / Fold change vs veh, LARP1B / RFU, RASA1 / Fold change vs veh, RASA1 / RFU, RB1 / Fold change vs veh, RB1 / RFU, PPFIA1 / Fold change vs veh, PPFIA1 / RFU, MAT2A / Fold change vs veh, MAT2A / RFU, CCT5 / Fold change vs veh, CCT5 / RFU, WDR92 / Fold change vs veh, WDR92 / RFU, CUX1 / Fold change vs veh, CUX1 / RFU, TTC7A / Fold change vs veh, TTC7A / RFU, TMEM135 / Fold change vs veh, TMEM135 / RFU, DEPTOR / Fold change vs veh, DEPTOR / RFU, CPM / Fold change vs veh, CPM / RFU, DNAJB6 / Fold change vs veh, DNAJB6 / RFU, CACNA2D3 / Fold change vs veh, CACNA2D3 / RFU, DTX4 / Fold change vs veh, DTX4 / RFU, TFCP2 / Fold change vs veh, TFCP2 / RFU, GMCL1 /// GMCL1P1 / Fold change vs veh, GMCL1 /// GMCL1P1 / RFU, AEBP2 / Fold change vs veh, AEBP2 / RFU, SNHG1 /// SNORD22 /// SNORD25 /// SNORD26 /// SNORD27 /// SNORD28 /// SNORD29 /// SNORD31 / Fold change vs veh, SNHG1 /// SNORD22 /// SNORD25 /// SNORD26 /// SNORD27 /// SNORD28 /// SNORD29 /// SNORD31 / Fold change (Aza/veh), C12orf56 (ProbeSet 11735607_a_at) / Fold change (ACY-1035/veh), C12orf56 (ProbeSet 11735607_a_at) / Fold change (Aza/veh), FGFR1OP (ProbeSet 11751329_s_at) / Fold change (ACY-1035/veh), FGFR1OP (ProbeSet 11751329_s_at) / Fold change (Aza/veh), VPS36 (ProbeSet 11739960_a_at) / Fold change (ACY-1035/veh), VPS36 (ProbeSet 11739960_a_at) / RFU SYPL1 (11715823_x_at) / Fold change /veh SYPL1 (11715823_x_at) / RFU IGFBP7 (11715501_s_at) / Fold change /veh IGFBP7 (11715501_s_at) / RFU REEP3 (11722064_at) / Fold change /veh REEP3 (11722064_at) / RFU IGLL1 (11728026_x_at) / Fold change /veh IGLL1 (11728026_x_at): dose or concentration left out as unconfirmed
Conditions: MV-4-11 cells, 48 hours

Nc1ccc(-c2cccs2)cc1NC(=O)c1ccc2c(c1)cc(C1CC1)n2CCN1CCOCC1 [ACY-1035]
RFU SPINT1 (11716480_a_at): 24.20 RFU
